Test results: PMC7849180 (Frontiers in Pharmacology, 2020)
Like-named read-outs stand apart in the source and are kept apart here.

Tests used:
[1] = Description: Chemical Drug Class 1 New Drug
A Toxicity Test in Beagle Dogs Administered ZG0128 by Oral Gavage for 28 […]
The study consisted of 4 groups, including the control group and dose groups of […]
active ingredient ZG0163). Each group contained 10 dogs, with 5 male dogs and 5 female dogs. The dogs in each group were orally administered with control (empty capsule) or the corresponding doses of ZG0128 once a day for 28 consecutive days, followed by 28 days for recovery after drug discontinuation. The day of the first dose is defined as day 1 of the dosing period. During the dosing period and the recovery period, the general conditions of the dogs in different groups were observed every day.
The body weight and food intake of the dogs were measured twice a week during the dosing period and once a week during the recovery period, respectively. At 2-3 h after the dosing on day 14, and 2-3 h after the last dose as well as on the last day of the recovery period. The lead II electrocardiogram, blood pressure and body temperature (anal temperature) were measured. One ophthalmic examination and routine urinalysis were arranged at the end of dosing and recovery periods, respectively. Hematology and blood biochemistry tests were performed on day 15 and the end of the dosing and recovery periods, respectively.
In all other groups, 6 and 4 dogs
(male:female=1:1) were dissected at the end of dosing and recovery periods, respectively. After the dogs were euthanized, bone marrow smear, gross anatomy, organ weight measurement and histopathological examination of tissue samples were performed. Blood samples were collected from dogs before the first/last dose and 0.5, 1, 2, 4, 6, 10, 24 h after drug administration in ZG0128 dose groups. Blood samples were collected before the first/last dose and 2 h after the first/last dose, respectively.
LC-MS/MS was used to measure the concentration of the original drug ZG0163 and […]
the amide hydrolysis metabolite ZG0245 in blood samples at various time points and to calculate AUClast, Cmax, Tmax, and other toxicokinetic parameters.

[2] = 26-week oral gavage toxicity; assay type: in vivo, Wistar rats
Protocol: (§1) Suzhou Zelgen Biopharmaceuticals Co., Ltd. Jaktinib Hydrochloride Tablets Chemical Drug Class 1 New Drug
Wistar rats were given 4, 12, or 30 mg/kg of ZG0128 via oral gavage once a day for 26 consecutive weeks, followed by 28 days for recovery after drug discontinuation.
Only the 30 mg/kg dose caused a slight decrease in lymphocyte counts, which might be related to the pharmacological effects of ZG0128. The lymphocyte counts were back to normal by the end of recovery period. No other obvious abnormalities related to the […]
conditions, body weight, ophthalmologic examination, blood biochemistry, blood coagulation, routine urinalysis, gross anatomy and histopathological examination during the trial. The no observed adverse effect level (NOAEL) was 30 mg/kg. At this dose, the drug exposure was 52697 h•ng/mL (based on the active ingredient ZG0163) in female rats and 67133 h•ng/mL in male rats on the first day of dosing, and on day 182 of dosing the drug exposure was 75339 h•ng/mL (based on the active ingredient ZG0163) in female rats and 45024 h•ng/mL in male rats. […]

[3] = 28-day oral gavage toxicity; assay type: in vivo, Wistar rats; conditions: for drug exposure: 24.4 mg/kg
Protocol: Suzhou Zelgen Biopharmaceuticals Co., Ltd. Jaktinib Hydrochloride Tablets Chemical Drug Class 1 New Drug […]
active ingredient ZG0163). The control group contained 36 Wistar rats (6 rats were used for the toxicokinetic test) and each group of ZG0128 contained 54 rats (24 rats in each group were used for the toxicokinetic test), with half males and half females. The rats in each group were given the control substance (0.5% CMC-Na solution) or the corresponding concentrations of ZG0128 in a 10 mL/kg volume by oral gavage once a […]
The day of the first dose […]
is defined as day 1 of the dosing period, while the day of anatomy after the last dose is defined as day 1 of the recovery period. During the dosing period and the recovery […]
the body weight and food intake of the rats were measured twice a week during the […]
recovery periods, respectively. In the 219.6 mg/kg group, 12 (3 females, 9 males) and […]
and recovery periods, respectively. The rats in each group were anesthetized to collect blood samples for hematology and blood biochemistry tests. After the rats were […]
histopathological examination of tissue samples were performed. For the rats in […]
ZG0128 groups used for toxicokinetic test, their blood samples were collected before the first dose and last dose as well as 0.5, 1, 2, 3, 4, 6, 10, and 24 h after the first dose and last dose. For the rats in the control group, their blood samples were collected before the first dose and last dose and 3 h after the first dose and last dose, respectively.
LC-MS/MS was used to measure the concentrations of the original drug ZG0163 and its amide hydrolysis metabolite ZG0245 in the blood samples collected at various time […]
tissues, spleen, thymus, and bone marrow), digestive system (gastrointestinal tract, pancreas, and submandibular gland), reproduction system, kidney, and bones. The drug caused abnormal indicators related to liver, renal, and pancreatic functions, as well as decreased lymphocytes and platelets. At the dose of 73.2 mg/kg, some of the above lesions could be observed, but the severity of the lesions was mild. After drug discontinuation, the lesions in the submandibular gland, testis, and epididymis were still visible in 73.2 and 219.6 mg/kg groups, and the severity of the lesions was not […]
disappeared after drug discontinuation.
In the dose range of 24.4 to 219.6 mg/kg, the exposure to ZG0128 and its metabolite ZG0245 in female and male rats increased in proportion to the dose, and no significant gender difference was observed. After 28 days of consecutive administration, […]
both female and male rats of each dose group.
After the Wistar rats were given 24.4, 73.2, and 219.6 mg/kg of ZG0128 by oral […]
mg/kg. At this dose, the drug exposure dose in female rats on the first day of dosing […]
10124 h•ng/mL in male rats. On day 28 of dosing, the drug exposure dose in female

[4] = Single-dose oral toxicity; assay type: in vivo, Beagle dogs
Protocol: as §1
During the trial, the general conditions of the […]
measured once on days 3, 7, and 13, respectively. After 14 days of observation, the […]
and blood biochemistry tests. All rats were euthanized for gross anatomy. […]
after drug administration. […] During the […]
biochemistry tests were performed on days 2 and 15. After 14 days of observation, all dogs were anesthetized and euthanized for gross anatomy. Blood samples were […]
administration in ZG0128 dose groups. LC-MS/MS was used to measure the […]
AUClast, Cmax, Tmax, and other toxicokinetic parameters.

Molecule	NOAEL ([1]; 28 days)	NOAEL ([1]; Beagle dogs, oral, 28 days)	NOAEL ([2]; 26 weeks)	NOAEL ([2]; Wistar rats, oral, 26 weeks)	drug exposure ([3]; female rats, day 28)	drug exposure ([3]; female rats, first day)	drug exposure ([3]; male rats, day 28)	drug exposure ([3]; male rats, first day)	AUC0-t ([4]; single oral 366 mg/kg ZG0128)	AUC0-t ([4]; single oral 1220 mg/kg ZG0128)	dose causing death ([1]; 28 days)	highest non-severely toxic dose (HNSTD) ([1]; dog, in vivo)	NOAEL ([2]; rat, in vivo)	highest non-severely toxic dose (HNSTD) ([3]; 28 consecutive days)	dose causing dying or death ([3]; 28 days)	maximum tolerated dose (MTD) ([4]; single oral dose)
Jaktinib	18.3 mg/kg	18.3 mg/kg/day	30 mg/kg	30 mg/kg/day	51893 ± 20625 ng·h/mL	60887 ± 21040 ng·h/mL	46522 ± 17149 ng·h/mL	50799 ± 10124 ng·h/mL	10215 ± 10044 ng/mL	19752 ± 9998 ng/mL	–	–	–	–	–	–
Cl.Cl.O.[2H]C1([2H])COCC([2H])([2H])N1c1ccc(Nc2nccc(-c3ccc(C(=O)NCC#N)cc3)n2)cc1 [ZG0128, Jaktinib Dihydrochloride Monohydrate]	18.3 mg/kg	–	–	–	–	–	–	–	–	–	195.2 mg/kg	61 mg/kg	30 mg/kg	24.4 mg/kg	219.6 mg/kg	1220 mg/kg
